Read-outs that look alike come from different tables or passages of the source.
Experiments:
[1] = tested on: mCRPC patients; conditions: cited from earlier work
[2] = tested on: castration resistant prostate cancer (CRPC) patients; conditions: in combination with prednisone; first-line chemotherapy; cited from earlier work
[3] = tested on: CTCs of mCRPC patients; assay: CTC response to cabazitaxel after two cycles (CABARESC side-study); assay type: in vivo, human; conditions: for CTC response: No (number of patients): 25 mg/m^2; for CTC response: Yes (number of patients): decrease from ≥10 to <5 CTCs/7.5 mL
Procedure: Blood was drawn by venipuncture before start of the first and the third cycle of cabazitaxel. Enumeration of CTCs was carried out as described in detail before (Sieuwerts et al., 2009. Breast Cancer Res Treat 118:455-68; Sieuwerts et al., 2011. Clin Cancer Res 17:3600-18). Briefly, CTCs were enumerated from 7.5 mL of blood drawn into a CellSave Preservative tube (Janssen Diagnostics). Blood samples were processed within 96 hours using the Epithelial Cell Kit on the CellSearch System (both Janssen Diagnostics). In this system, epithelial cells are immunomagnetically enriched from whole blood using anti-EpCAM antibodies loaded with ferrofluid nanoparticles. Enriched cells are stained with the nuclear dye 4′,6-diamidino-2-phenylindole (DAPI), anti-cytokeratin 8/18/19 labeled with phycoerythrin (PE), and anti-CD45 labeled with allophycocyanin (APC), followed by scanning using the CellTracks Analyzer (Janssen Diagnostics). All cells ≥4 μm, with round-to-oval morphology, positive for cytokeratin and DAPI, with at least 50% overlap in the DAPI and cytokeratin signal, and negative for CD45 were considered CTCs. All samples were analyzed by two independent, trained reviewers.
From 25 patients a secondary CTC sample was available; in three patients the second draw was missed and one patient died after the second cycle because of a non-disease related event. Of these 25 patients, 15 were AR-V7-positive and 10 were AR-V7-negative. […] The CTC-RRs in both AR-V7-positive and AR-V7-negative patient groups were 20% (Table 4).

[4] = tested on: mCRPC patients; assay: PSA response to cabazitaxel (after 12 weeks and best response at end of treatment); assay type: in vivo, human; conditions: for Best PSA response: No (number of patients) / Best PSA response: ≥50% (number of patients) / Best PSA response: ≥30% (number of patients): end of treatment; for Best PSA response: ≥30% (number of patients) / PSA response after 12 weeks: ≥30% (number of patients): includes patients with ≥50% PSA response
From the text: Sequential PSA levels during cabazitaxel for evaluation of PSA response after 12 weeks and maximal PSA response at the end of treatment were available from […]. Five (17%) and three patients (10%) achieved a ≥30% and ≥50% PSA response, respectively, after 12 weeks of treatment. At the end of treatment, the best PSA response was ≥30% in seven patients (24%) and ≥50% in three patients (10%). The differences between 30% and 50% PSA-RR after 12 weeks and at the end of treatment between patients with and without AR-V7 in CTCs were not statistically significant (Table 4, FIG. 2). Prior abiraterone acetate treatment had no influence on CTC-RR and PSA-RR during cabazitaxel treatment.

[5] = tested on: mCRPC patients; assay: Overall survival under cabazitaxel treatment
Procedure: Primary endpoint of this study was the CTC response rate (RR) to cabazitaxel, defined as a decrease from ≥10 CTC to <5/7.5 ml of blood after two treatment cycles.
Applied statistical tests were the X^2 test for differences between categorical variables, the Student's t test for normally distributed and the Mann-Whitney U test for other continuous variables. Correlations were tested by Pearson or the non-parametric Spearman's test, depending on the distribution. Survival was visualized using Kaplan Meier plots and differences were calculated through Log-rank testing. All statistical tests were two-sided. A P-value <0.05 was considered statistically significant.

[6] = patients with AR-V7 transcripts in their CTCs
[7] = all patients, after 12 weeks of treatment
[8] = all patients, at the end of treatment

CC(=O)O[C@H]1CC[C@@]2(C)C(=CC[C@@H]3[C@@H]2CC[C@]2(C)C(c4cccnc4)=CC[C@@H]32)C1 [abiraterone acetate]
patients who responded [1, 6]: none
patients who responded ([1]; patients without AR-V7): 68%

CC(=O)O[C@@]12CO[C@@H]1C[C@H](O)[C@@]1(C)C(=O)[C@H](O)C3=C(C)[C@@H](OC(=O)[C@H](O)[C@@H](NC(=O)OC(C)(C)C)c4ccccc4)C[C@@](O)([C@@H](OC(=O)c4ccccc4)[C@H]21)C3(C)C [docetaxel]
survival benefit [2]: 2.4 months

CO[C@H]1C(=O)[C@]2(C)[C@@H](OC)C[C@H]3OC[C@@]3(OC(C)=O)[C@H]2[C@H](OC(=O)c2ccccc2)[C@]2(O)C[C@H](OC(=O)[C@H](O)[C@@H](NC(=O)OC(C)(C)C)c3ccccc3)C(C)=C1C2(C)C [cabazitaxel, 4a-acetoxy-2a-benzoyloxy-5,20-epoxy-1-hydroxy-7,10-dimethoxy-9-oxo-1 1-taxen-13a-yl (2R,3S)-3-fert-butoxycarbonylamino-2-hydroxy-3-phenylpropionate]
CTC-RR ([3]; AR-V7-negative patient group): 20%
CTC-RR ([3]; AR-V7-positive patient group): 20%
CTC response: No (number of patients) ([3]; AR-V7 in CTCs at baseline: No): 8
CTC response: Yes (number of patients) ([3]; AR-V7 in CTCs at baseline: No): 2
CTC response: No (number of patients) ([3]; AR-V7 in CTCs at baseline: Yes): 12
CTC response: Yes (number of patients) ([3]; AR-V7 in CTCs at baseline: Yes): 3
CTC response to cabazitaxel (share of patients) ([3]; all 25 patients with a second CTC sample): 20%
PSA response after 12 weeks: No (number of patients) ([4]; AR-V7 in CTCs at baseline: No): 9
PSA response after 12 weeks: ≥50% (number of patients) ([4]; AR-V7 in CTCs at baseline: No): 2
Best PSA response: No (number of patients) ([4]; AR-V7 in CTCs at baseline: No): 7
Best PSA response: ≥50% (number of patients) ([4]; AR-V7 in CTCs at baseline: No): 2
Best PSA response: ≥30% (number of patients) ([4]; AR-V7 in CTCs at baseline: No): 4
PSA response after 12 weeks: ≥30% (number of patients) ([4]; AR-V7 in CTCs at baseline: No): 3
PSA response after 12 weeks: No (number of patients) ([4]; AR-V7 in CTCs at baseline: Yes): 12
PSA response after 12 weeks: ≥50% (number of patients) ([4]; AR-V7 in CTCs at baseline: Yes): 1
Best PSA response: No (number of patients) ([4]; AR-V7 in CTCs at baseline: Yes): 12
Best PSA response: ≥50% (number of patients) ([4]; AR-V7 in CTCs at baseline: Yes): 1
Best PSA response: ≥30% (number of patients) ([4]; AR-V7 in CTCs at baseline: Yes): 3
PSA response after 12 weeks: ≥30% (number of patients) ([4]; AR-V7 in CTCs at baseline: Yes): 2
≥30% PSA response (share of patients) [4, 7]: 17%
≥50% PSA response (share of patients) [4, 7]: 10%
best PSA response ≥30% (share of patients) [4, 8]: 24%
best PSA response ≥50% (share of patients) [4, 8]: 10%
Median OS ([5]; all patients (28 available)): 9.5 (95% CI 5.8-13.2) months
Median OS ([5]; patients with AR-V7 in CTCs at baseline): 9.5 (95% CI 4.5-14.5) months
Median OS ([5]; patients without AR-V7 in CTCs at baseline): 7.7 (95% CI 3.3-12.1) months

CNC(=O)c1ccc(N2C(=S)N(c3ccc(C#N)c(C(F)(F)F)c3)C(=O)C2(C)C)cc1F [enzalutamide]
patients who responded [1, 6]: none
patients who responded ([1]; patients without AR-V7): 53%

— patent US10555926B2, “Use of cabazitaxel in the treatment of prostate cancer” (Erasmus University Medical Center Rotterdam, priority 2015, dated 2020)
